ChEMBL document CHEMBL3621056, “Discovery of mitochondria-targeting berberine derivatives as the inhibitors of proliferation, invasion and migration against rat C6 and human U87 glioma cells” (Medchemcomm, 2015)
pIC50: −log10 of the molar value. Active and inactive are the calls of the source. The rule behind the calls is not given here.

Legend:
U-87MG ATCC [1] = assay: (§1) Antiinvasive activity in human U87 cells at 0.5 uM after 24 hrs by Transwell assay relative to control; assay type: functional
C6 [2] = assay: Induction of intracellular reactive oxygen species formation in rat C6 cells at 2 uM after 24 hrs by DHE dye-based inverted fluorescent microscopic analysis; assay type: functional, cell-based
[3] = n-octanol/water partition coefficient, log P of the compound by HPLC analysis; assay type: physicochemical
C6 [4] = assay: Antiinvasive activity in rat C6 cells at 0.5 uM after 24 hrs by Transwell assay relative to control; assay type: functional
U-87MG ATCC [5] = assay: (§2) Antimigratory activity in human U87 cells at 0.5 uM after 24 hrs by Transwell assay relative to control; assay type: functional
U-87MG ATCC [6] = assay: Induction of intracellular reactive oxygen species formation in human U87 cells at 2 uM after 24 hrs by DHE dye-based inverted fluorescent microscopic analysis; assay type: functional, cell-based
U-87MG ATCC [7] = assay: (§3) Cytotoxicity against human U87 cells assessed as inhibition of cell proliferation after 24 hrs by MTT assay; assay type: functional, cell-based
[8] = as §3; assay type: functional, cell-based, U-87MG ATCC; details: U-87 MG
C6 [9] = assay: Cytotoxicity against rat C6 cells assessed as inhibition of cell proliferation after 24 hrs by MTT assay; assay type: functional, cell-based; details: for pIC50: C6, 24 h
C6 [10] = assay: Antimigratory activity in rat C6 cells at 0.5 uM after 24 hrs by Transwell assay relative to control; assay type: functional
[11] = Cytotoxicity against human U87 cells assessed as cell survival rate at 10 uM after 24 hrs by MTT assay relative to control; assay type: functional, U-87MG ATCC; details: U-87 MG, read-out: Survival
C6 [12] = assay: Cytotoxicity against rat C6 cells assessed as cell survival rate at 10 uM after 24 hrs by MTT assay relative to control; assay type: functional; details: C6, 24 h, read-out: Survival
[13] = (§4) Antimigratory activity in human U87 cells at 2.5 uM after 24 hrs by Transwell assay relative to control; assay type: functional, U-87MG ATCC
[14] = (§5) Antiinvasive activity in human U87 cells at 2.5 uM after 24 hrs by Transwell assay relative to control; assay type: functional, U-87MG ATCC
[15] = as §1; assay type: functional, U-87MG ATCC
[16] = Drug uptake in mitochondria of rat C6 cells at 1 uM after 24 hrs by Mitotracker Green FM staining-based laser confocal microscopic analysis; assay type: ADME; details: c6, 24 h
[17] = as §2; assay type: functional, U-87MG ATCC
[18] = Drug uptake in mitochondria of human U87 cells at 1 uM after 24 hrs by Mitotracker Green FM staining-based laser confocal microscopic analysis; assay type: ADME; details: u-87mg atcc
U-87MG ATCC [19] = assay: as §4; assay type: functional
[20] = Cytotoxicity against human U87 cells assessed as cell survival rate at 20 uM after 24 hrs by MTT assay relative to control; assay type: functional, U-87MG ATCC; details: U-87 MG, read-out: Survival
C6 [21] = assay: Antiinvasive activity in rat C6 cells at 1 uM after 24 hrs by Transwell assay; assay type: functional, cell-based
C6 [22] = assay: Cytotoxicity against rat C6 cells assessed as cell survival rate at 20 uM after 24 hrs by MTT assay relative to control; assay type: functional; details: C6, 24 h, read-out: Survival
U-87MG ATCC [23] = assay: as §5; assay type: functional
C6 [24] = assay: Antimigratory activity in rat C6 cells at 1 uM after 24 hrs by Transwell assay; assay type: functional, cell-based
[25] = Cytotoxicity against human U87 cells assessed as growth inhibition after 72 hrs by SRB assay; assay type: functional, cell-based, U-87MG ATCC; details: U-87 MG
U-87MG ATCC [26] = assay: Antimigratory activity in human U87 cells at 5 uM after 24 hrs by Transwell assay; assay type: functional, cell-based
C6 [27] = assay: Antiinvasive activity in rat C6 cells at 5 uM after 24 hrs by Transwell assay; assay type: functional, cell-based
U-87MG ATCC [28] = assay: Antiinvasive activity in human U87 cells at 5 uM after 24 hrs by Transwell assay; assay type: functional, cell-based
C6 [29] = assay: Antimigratory activity in rat C6 cells at 5 uM after 24 hrs by Transwell assay; assay type: functional, cell-based
[30] = Cytotoxicity against human U87 cells assessed as cell survival rate up to 20 uM after 24 hrs by MTT assay relative to control; assay type: functional, U-87MG ATCC
[31] = Antimigratory activity in human U87 cells at 2 uM after 24 hrs by Transwell assay relative to control; assay type: functional, U-87MG ATCC
[32] = Antiinvasive activity in human U87 cells at 2 uM after 24 hrs by Transwell assay relative to control; assay type: functional, U-87MG ATCC

SMILES | Activity (C6 [2]) | logP [3] | Activity (C6 [4]) | Activity (U-87MG ATCC [6]) | inhibition (U-87MG ATCC [7]) | pIC50 [8] | inhibition (C6 [9]) | pIC50 (C6 [9]) | Activity (C6 [10]) | viability at 10 µM [11] | viability at 10 µM (C6 [12]) | Activity [13] | Activity [14] | Drug uptake [16] | Drug uptake [18] | further results
CCCCCCCCCCc1c2[n+](cc3c(OC)c(OC)ccc13)CCc1cc3c(cc1-2)OCO3 | Active | 2.37 | Active | Active | Dose-dependent effect | 5.44 | Dose-dependent effect | 5.95 | Active | < 20% | < 20% |  |  |  |  | Activity (U-87MG ATCC [1]): Active; Activity (U-87MG ATCC [5]): Active
CCCCCCCCCCCCCCCCCCOc1c(OC)ccc2cc3[n+](cc12)CCc1cc2c(cc1-3)OCO2.[Br-] | inactive | 3.01 | >30% | inactive | Dose-dependent effect | 4.65 | Dose-dependent effect | 5.35 | >30% |  |  | >30% | >30% |  |  | 
CCCCCCCCCCCCCCCCCCc1c2[n+](cc3c(OC)c(OC)ccc13)CCc1cc3c(cc1-2)OCO3.[I-] | inactive | 3.22 | >30% | inactive | Dose-dependent effect | 5.24 | Dose-dependent effect | 5.63 | >30% | < 20% | < 20% | >30% | >30% |  |  | 
CCCCCCCCCCCCCCCCc1c2[n+](cc3c(OC)c(OC)ccc13)CCc1cc3c(cc1-2)OCO3.[I-] |  | 3.24 | >30% |  | Dose-dependent effect | 5.49 | Dose-dependent effect | 5.78 | >30% | < 20% | < 20% |  |  | Active | Active | Activity [15]: >30%; Activity [17]: >30%
CCCCCCCCCCOc1c(OC)ccc2cc3[n+](cc12)CCc1cc2c(cc1-3)OCO2 | Active | 2.26 | Active | Active | Dose-dependent effect | 5.24 | Dose-dependent effect | 5.53 | Active |  |  |  |  |  |  | Activity (U-87MG ATCC [19]): Active
COc1ccc2c(Cc3ccccc3)c3[n+](cc2c1OC)CCc1cc2c(cc1-3)OCO2 | inactive | -0.73 |  | inactive | Dose-dependent effect | < 4.70 | Dose-dependent effect | 4.84 |  |  |  |  |  |  |  | viability at 20 µM [20]: 67.2%; Activity (C6 [21]): inactive; Activity (U-87MG ATCC [19]): inactive; viability at 20 µM (C6 [22]): 37.2%; Activity (U-87MG ATCC [23]): inactive; Activity (C6 [24]): inactive
CCCCCCCCCCCCc1c2[n+](cc3c(OC)c(OC)ccc13)CCc1cc3c(cc1-2)OCO3.[I-] | Active | 3.66 | >60% | Active | Dose-dependent effect | 5.51 | Dose-dependent effect | 5.78 | >60% | < 20% | < 20% |  |  | Active | Active | Activity [15]: >60%; Activity [17]: >60%
COc1ccc2cc3[n+](cc2c1OCc1ccccc1)CCc1cc2c(cc1-3)OCO2.[Br-] | Active | -0.86 | >30% | Active | Dose-dependent effect | < 4.70 | Dose-dependent effect | 4.94 | >30% |  |  | >30% | >30% |  |  | 
CCc1c2c(nc3ccc(OC(=O)N4CCC(N5CCCCC5)CC4)cc13)-c1cc3c(c(=O)n1C2)COC(=O)[C@]3(O)CC [IRINOTECAN] |  |  |  |  |  |  |  |  |  |  |  |  |  |  |  | pIC50 [25]: < 3.60
COc1ccc2cc3[n+](cc2c1OC)CCc1cc2c(cc1-3)OCO2.[Cl-] [BERBERINE CHLORIDE] | inactive | -1.68 |  | inactive |  | < 4.70 |  | < 4.70 |  |  |  |  |  | Active | Active | Activity (U-87MG ATCC [26]): Active; Activity (C6 [27]): Active; Activity (U-87MG ATCC [28]): Active; Activity (C6 [29]): Active
Cn1nnc2c(C(N)=O)ncn2c1=O [TEMOZOLOMIDE] |  |  |  |  |  |  |  |  |  |  |  |  |  |  |  | pIC50 [25]: 4.71
CCCCCCCCCCCCCCCCOc1c(OC)ccc2cc3[n+](cc12)CCc1cc2c(cc1-3)OCO2.[Br-] |  | 3.41 | >60% |  | Dose-dependent effect | 4.82 | Dose-dependent effect | 5.21 | >60% |  |  | >60% | >60% | Active | Active | Survival [30]: 38.95%
CCCCCCCCCCCCOc1c(OC)ccc2cc3[n+](cc12)CCc1cc2c(cc1-3)OCO2.[Br-] | Active | 3.43 | >60% | Active | Dose-dependent effect | 5.34 | Dose-dependent effect | 5.91 | >60% |  |  |  |  | Active | Active | Activity [31]: >60%; Activity [32]: >60%
